In US10670605B2, “Cysteine reactive probes and uses thereof” (The Scripps Research Institute, priority 2015, dated 2020):

Experiments:
Test in all cases: Competitive isoTOP-ABPP in situ (fragment-treated cells)
Assay type in all cases: cell-based
[1] = molecular target: cysteines in MDA-MB-231 and Ramos cells (Homo sapiens, UniProt Q15003)
[2] = molecular target: T1, cysteines in MDA-MB-231 and Ramos cells (Homo sapiens, UniProt O94953); conditions: 200 μM, insitu, ramos
T1 sequence (O94953 1-1096): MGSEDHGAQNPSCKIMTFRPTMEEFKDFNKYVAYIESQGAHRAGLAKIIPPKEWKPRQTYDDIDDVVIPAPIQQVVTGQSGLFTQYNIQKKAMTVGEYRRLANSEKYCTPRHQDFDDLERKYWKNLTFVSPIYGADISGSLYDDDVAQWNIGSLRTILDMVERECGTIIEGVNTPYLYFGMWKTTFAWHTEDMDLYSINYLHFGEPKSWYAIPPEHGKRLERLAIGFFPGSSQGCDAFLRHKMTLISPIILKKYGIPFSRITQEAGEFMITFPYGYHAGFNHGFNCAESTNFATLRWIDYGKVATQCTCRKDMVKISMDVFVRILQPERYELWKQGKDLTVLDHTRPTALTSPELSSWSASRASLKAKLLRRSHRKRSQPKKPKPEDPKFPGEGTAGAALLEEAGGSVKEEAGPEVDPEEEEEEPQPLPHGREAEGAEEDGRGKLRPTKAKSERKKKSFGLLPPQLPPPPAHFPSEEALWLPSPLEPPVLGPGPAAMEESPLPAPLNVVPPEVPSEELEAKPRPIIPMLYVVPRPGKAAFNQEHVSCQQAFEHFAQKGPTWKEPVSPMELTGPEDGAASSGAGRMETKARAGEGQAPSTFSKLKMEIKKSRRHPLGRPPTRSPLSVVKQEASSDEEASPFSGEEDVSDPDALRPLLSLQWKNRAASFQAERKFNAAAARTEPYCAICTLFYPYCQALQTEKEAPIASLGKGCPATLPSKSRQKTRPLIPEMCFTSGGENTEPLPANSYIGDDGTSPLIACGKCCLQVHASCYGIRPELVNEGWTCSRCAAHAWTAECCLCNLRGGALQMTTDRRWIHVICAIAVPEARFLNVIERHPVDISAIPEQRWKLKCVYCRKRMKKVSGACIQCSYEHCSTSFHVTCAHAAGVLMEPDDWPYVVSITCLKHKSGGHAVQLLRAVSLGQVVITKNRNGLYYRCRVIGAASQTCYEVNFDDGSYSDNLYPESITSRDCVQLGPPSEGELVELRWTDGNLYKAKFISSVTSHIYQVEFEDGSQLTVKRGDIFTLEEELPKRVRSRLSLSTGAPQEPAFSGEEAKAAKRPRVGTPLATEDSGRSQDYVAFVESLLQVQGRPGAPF

[3] = molecular target: T2, cysteines in MDA-MB-231 and Ramos cells (Homo sapiens, UniProt Q9UPT9)
T2 sequence (Q9UPT9 1-525): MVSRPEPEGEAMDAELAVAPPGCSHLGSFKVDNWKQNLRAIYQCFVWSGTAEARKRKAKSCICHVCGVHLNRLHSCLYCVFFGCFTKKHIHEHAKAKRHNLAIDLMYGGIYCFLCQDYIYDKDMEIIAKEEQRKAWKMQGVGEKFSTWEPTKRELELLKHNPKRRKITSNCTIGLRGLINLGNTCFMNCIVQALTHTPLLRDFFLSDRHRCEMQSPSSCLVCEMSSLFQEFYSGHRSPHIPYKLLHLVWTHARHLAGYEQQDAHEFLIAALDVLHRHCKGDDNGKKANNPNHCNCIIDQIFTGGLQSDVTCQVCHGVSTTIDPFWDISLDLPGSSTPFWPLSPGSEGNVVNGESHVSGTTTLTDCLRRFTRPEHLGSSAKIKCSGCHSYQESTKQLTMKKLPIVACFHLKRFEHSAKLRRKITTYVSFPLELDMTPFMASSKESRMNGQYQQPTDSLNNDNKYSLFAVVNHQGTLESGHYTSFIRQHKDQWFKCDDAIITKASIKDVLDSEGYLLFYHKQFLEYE

[4] = molecular target: T3, cysteines in MDA-MB-231 and Ramos cells (Homo sapiens, UniProt Q9C0I1); conditions: 200 μM, insitu
T3 sequence (Q9C0I1 1-747): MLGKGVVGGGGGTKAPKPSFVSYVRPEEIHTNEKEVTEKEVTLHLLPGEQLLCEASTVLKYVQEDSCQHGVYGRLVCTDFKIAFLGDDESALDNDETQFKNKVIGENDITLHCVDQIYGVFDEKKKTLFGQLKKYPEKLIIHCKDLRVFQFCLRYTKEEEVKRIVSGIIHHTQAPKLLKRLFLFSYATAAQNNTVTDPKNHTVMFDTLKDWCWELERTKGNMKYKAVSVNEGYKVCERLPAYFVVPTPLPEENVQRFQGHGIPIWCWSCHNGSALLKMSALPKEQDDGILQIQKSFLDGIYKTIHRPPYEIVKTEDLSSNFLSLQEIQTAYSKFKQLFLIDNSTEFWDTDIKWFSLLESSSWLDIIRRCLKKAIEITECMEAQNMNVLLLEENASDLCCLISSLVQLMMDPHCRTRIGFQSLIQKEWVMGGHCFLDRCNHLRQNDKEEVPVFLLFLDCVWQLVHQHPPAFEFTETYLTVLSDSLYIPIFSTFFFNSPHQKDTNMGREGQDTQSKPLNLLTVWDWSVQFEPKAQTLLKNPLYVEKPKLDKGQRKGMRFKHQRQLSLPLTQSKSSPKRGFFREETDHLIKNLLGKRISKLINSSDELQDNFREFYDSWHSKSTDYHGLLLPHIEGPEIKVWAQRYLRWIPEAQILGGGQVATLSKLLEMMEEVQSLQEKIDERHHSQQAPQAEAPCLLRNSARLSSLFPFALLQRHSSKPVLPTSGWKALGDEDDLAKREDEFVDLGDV

Chain of cysteines in MDA-MB-231 and Ramos cells (Homo sapiens, UniProt Q15003) (Q15003 whole entry): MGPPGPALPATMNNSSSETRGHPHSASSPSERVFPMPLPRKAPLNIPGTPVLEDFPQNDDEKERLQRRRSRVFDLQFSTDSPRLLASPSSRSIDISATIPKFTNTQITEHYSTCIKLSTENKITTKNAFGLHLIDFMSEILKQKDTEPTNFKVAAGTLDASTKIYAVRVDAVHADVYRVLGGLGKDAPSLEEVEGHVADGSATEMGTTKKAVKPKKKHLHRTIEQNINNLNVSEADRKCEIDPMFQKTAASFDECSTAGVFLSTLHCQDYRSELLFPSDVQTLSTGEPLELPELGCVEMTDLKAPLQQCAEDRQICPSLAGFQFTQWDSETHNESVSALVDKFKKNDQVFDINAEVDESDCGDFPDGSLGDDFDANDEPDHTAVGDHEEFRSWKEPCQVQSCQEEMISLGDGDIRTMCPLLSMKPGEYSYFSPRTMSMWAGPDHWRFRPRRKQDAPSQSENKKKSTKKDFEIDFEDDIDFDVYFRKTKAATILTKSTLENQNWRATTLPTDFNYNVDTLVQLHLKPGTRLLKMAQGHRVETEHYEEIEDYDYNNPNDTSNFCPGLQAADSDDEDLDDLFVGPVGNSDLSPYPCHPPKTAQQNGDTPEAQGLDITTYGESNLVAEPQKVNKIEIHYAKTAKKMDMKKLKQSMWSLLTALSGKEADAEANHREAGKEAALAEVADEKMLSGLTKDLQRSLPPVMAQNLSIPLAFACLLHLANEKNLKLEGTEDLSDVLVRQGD

## COc1ccc(C2CC(c3cccs3)=NN2C(=O)CCl)cc1 (stereo not drawn) [compound 4]
[1]; 100 μM in situ 231
  isoTOP-ABPP reactivity Q15003_C418 NCAPH: 20.0

## O=C(CCl)N1CCN(S(=O)(=O)c2ccccc2F)CC1 [compound 10]
[2]
  isoTOP-ABPP ratio, cysteine O94953_C694: 3.9
[3]; 200 μM, insitu, ramos
  isoTOP-ABPP ratio, cysteine Q9UPT9_C171: 9.3

## CC1CCc2ccccc2N1C(=O)CCl (stereo not drawn) [compound 45]
[1]; 200 μM, insitu, 231
  isoTOP-ABPP ratio Q15003_C418: 20.0

## COc1ccc2c(c1)CCCN2C(=O)CCl [compound 2]
[1]; 200 μM, insitu, 231
  isoTOP-ABPP reactivity Q15003_C418 NCAPH: 20.0

## O=C(CCl)NC(=O)NC12CC3CC(CC(C3)C1)C2 [compound 12]
[4]; 231
  isoTOP-ABPP ratio, cysteine Q9C0I1_C152: 20.0

## Cn1cc(S(=O)(=O)N2CCOCC2)cc1C(=O)NC(=O)CCl [compound 11]
[1]; 100 μM in situ 231
  isoTOP-ABPP ratio, cysteine Q15003_C418: 1 .6
[3]; 100 μM in situ 231
  isoTOP-ABPP ratio, cysteine Q9UPT9_C171: 0.8

## O=C(CCl)NCCc1c[nH]c2ccccc12 [compound 13]
[2]
  isoTOP-ABPP ratio, cysteine O94953_C694: 1.5
[4]; ramos
  isoTOP-ABPP ratio, cysteine Q9C0I1_C152: 6.5
[3]; 200 μM, insitu, ramos
  isoTOP-ABPP ratio, cysteine Q9UPT9_C171: 3.2

## O=C(CCl)N1CCN(CC(=O)N2CCOCC2)CC1 [compound 29]
[2]
  isoTOP-ABPP ratio, O94953_C694: 1.1
[1]; 200 μM, insitu, ramos
  isoTOP-ABPP ratio Q15003_C418: 1.4
[4]; ramos
  isoTOP-ABPP ratio Q9C0I1_C152: 4.6

## O=C(CCl)NC12CC3CC(CC(C3)C1)C2 [compound 21]
[4]; 231
  isoTOP-ABPP ratio, cysteine Q9C0I1_C152: 0.7
